US20230058316A1, “PEGYLATED IGE-DEPENDENT HISTAMINE-RELEASING FACTOR (HRF)-BINDING PEPTIDE AND USE THEREOF” (EWHA UNIVERSITY - INDUSTRY COLLABORATION FOUNDATION, priority 2020, published 2023)
Where no end group is shown, it is not given here.

Test system: ovalbumin-specific IgE
Experiment: Ovalbumin-specific IgE secretion in mouse plasma, ovalbumin-induced bronchial asthma and rhinitis mouse model
Assay type: in vivo
Details: 1 mg/kg IP
Procedure: A bronchial asthma and rhinitis animal model was prepared by the following method. An ovalbumin solution was prepared by dissolving ovalbumin in an aluminum hydroxide solution (1 mg/ml) 28 and 14 days before the start of inducing bronchial asthma and rhinitis, and 200 μl of the solution was intraperitoneally injected into each mouse for sensitization. After 14 days of final sensitization, 20 μl of saline/PBS (normal control; NC) or 20 μl of 10 mg/mL ovalbumin solution (positive control; PC) was instilled into the nasal cavity of each lightly anesthetized mouse 4 times every other day for 8 days to induce bronchial asthma and rhinitis.
Ovalbumin is an allergy-causing substance mainly contained in egg whites. […] After completion of the experiment, the mouse was anesthetized by injecting a mixture of zoletil (250 mg/kg) and rompun (50 mg/kg) intraperitoneally, and the chest was opened. 0.8 mL blood was collected by puncture of the heart with a 26 gauge 1 mL syringe coated with heparin. The collected blood was centrifuged at 4° C., 3000 rpm for 10 minutes to obtain plasma components. The amount of ovalbumin-specific IgE in the blood serum obtained through the above process was measured and quantified by enzyme immunosorbent detection method using mouse OVA specific IgE kit (Biolegend, USA).
Next, in order to confirm whether there is an effect of inhibiting ovalbumin-specific IgE secretion in plasma even when administered in a small number of times, the dTBP2 of Preparative Example 4 and Example 3 was administered to the mouse model of Example 4-1 through intraperitoneal injection once in 4 days for a total of 2 times for 8 days inducing bronchial asthma and rhinitis. The amount of ovalbumin-specific IgE secretion was measured and quantified by the enzyme immunosorbent detection method in the same manner.
In addition, the dTBP2 of Preparative Example 4 and Example 3 was administered to the mouse model of Example 4-1 through intraperitoneal injection once on the 1st day of 8 days inducing bronchial asthma and rhinitis. The amount of ovalbumin-specific IgE secretion was measured and quantified by the enzyme immunosorbent detection method in the same manner.
The amount of ovalbumin-specific IgE secretion was measured and quantified by the enzyme immunosorbent detection method in the same manner.

## Example 3: dTBP2 (WYVYPSM) conjugated at the N-terminal with methoxy polyethylene glycol propionaldehyde (10 kDa) ({mPEG propionaldehyde 10 kDa}-WYVYPSM)
FIGS. 23 and 24
  inhibitory ability on ovalbumin-specific IgE secretion compared with dTBP2 of Preparative Example 4: better
Once in 4 days for a total of 2 times (FIG. 23) and once on the 1st day (FIG. 24)
  inhibiting ovalbumin-specific IgE secretion: effective
Once on the 5th day of 8 days, FIG. 25
  ovalbumin-specific IgE secretion inhibitory effect: inhibitory effect
plasma, 8 times daily for 8 days
  inhibiting ovalbumin-specific IgE secretion in plasma (in words): very effective
plasma, 8 times daily for 8 days, FIG. 22
  reduction of ovalbumin-specific IgE secretion: about 50%
